From paper PMC9416200, “Antifungal Potential of Synthetic Peptides against Cryptococcus neoformans: Mechanism of Action Studies Reveal Synthetic Peptides Induce Membrane–Pore Formation, DNA Degradation, and Apoptosis” (Pharmaceutics, 2022)
Values after ≈ are worked out from the molar mass of the structure shown.

Key:
C. neoformans infection = tested on: C. neoformans infection; set-up: method as in PMID 34203688; details: treated mice; cited from earlier work
[1] = tested on: Cryptococcus neoformans (ATCC 32045); test: Minimum inhibitory concentration assay, broth microdilution; type: cell-based; details: YPD, 10^6 cells mL^−1, peptides 50 to 0.004 µg mL^−1, 24 h, absorbance 600 nm, ND = MIC50 not reached, three independent experiments
[2] = tested on: laccase from C. neoformans; details: cited from earlier work

OC(Cn1cncn1)(Cn1cncn1)c1ccc(F)cc1F [fluconazole]
survival rate toward C. neoformans infection (C. neoformans infection): 20%

C[C@@H]1[C@H](O)[C@@H](C)/C=C/C=C/CC/C=C/C=C/C=C/C=C/C(O[C@H]2O[C@H](C)[C@@H](O)[C@H](N)[C@@H]2O)CC2O[C@](O)(CC(O)C(O)CCC(O)CC(O)CC(O)CC(=O)O[C@H]1C)CC(O)C2C(=O)O (some centres unmarked) [Nystatin]
MIC50 against C. neoformans ([1]; concentration required to inhibit 50% of yeast growth): 250 µg/mL (≈ 270 µM)

CCC(C)n1ncn(-c2ccc(N3CCN(c4ccc(OCC5COC(Cn6cncn6)(c6ccc(Cl)cc6Cl)O5)cc4)CC3)cc2)c1=O (centres unmarked) [Itraconazole]
MIC50 ([1]; Cryptococcus neoformans, ATCC32045, concentration required to inhibit 50% of yeast growth, read-out: MIC50 against C. neoformans): 500 µg/mL (≈ 709 µM)

O=c1oc2c(O)c(O)cc3c(=O)oc4c(O)c(O)cc1c4c23 [EA, Ellagic acid]
survival rate toward C. neoformans infection (C. neoformans infection): 70%
inhibition of laccase from C. neoformans [2]: interacts and inhibits the laccase
